Assay results taken from ChEMBL document CHEMBL1909046, “DrugMatrix in vitro pharmacology data”.

What was measured:
Nitric oxide synthase 1 = Nitric oxide synthase 1 (Rattus norvegicus, UniProt P29476); type: tissue-based, Cerebellum; note: in other assays of this panel Not Active means under 50% inhibition at 10 µM
[1] = biological target: T1, C-X-C chemokine receptor type 2 (Homo sapiens, UniProt P25025); type: cell membranes, Membrane; conditions: cho-k1; note: in other assays of this panel Not Active means under 50% inhibition at 10 µM
T1 sequence (P25025 whole entry): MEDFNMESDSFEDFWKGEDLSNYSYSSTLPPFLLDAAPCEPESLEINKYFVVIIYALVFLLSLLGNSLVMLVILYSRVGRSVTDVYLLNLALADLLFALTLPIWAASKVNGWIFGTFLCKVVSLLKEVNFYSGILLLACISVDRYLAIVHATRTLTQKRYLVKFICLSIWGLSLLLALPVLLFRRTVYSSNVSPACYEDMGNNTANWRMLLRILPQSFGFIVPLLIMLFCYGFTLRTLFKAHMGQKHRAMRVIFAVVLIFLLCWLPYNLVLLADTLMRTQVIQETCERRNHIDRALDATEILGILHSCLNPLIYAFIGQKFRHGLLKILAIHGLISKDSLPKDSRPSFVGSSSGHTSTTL

Cathepsin G = biological target: T2, Cathepsin G (Homo sapiens, UniProt P08311); type: tissue-based; conditions: neutrophil;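 note: inhibition of Cathepsin G enzyme activity, tested on an AMC-conjugated peptide substrate; in other assays of this panel Not Active means under 50% inhibition at 10 µM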
T2 sequence (P08311 whole entry): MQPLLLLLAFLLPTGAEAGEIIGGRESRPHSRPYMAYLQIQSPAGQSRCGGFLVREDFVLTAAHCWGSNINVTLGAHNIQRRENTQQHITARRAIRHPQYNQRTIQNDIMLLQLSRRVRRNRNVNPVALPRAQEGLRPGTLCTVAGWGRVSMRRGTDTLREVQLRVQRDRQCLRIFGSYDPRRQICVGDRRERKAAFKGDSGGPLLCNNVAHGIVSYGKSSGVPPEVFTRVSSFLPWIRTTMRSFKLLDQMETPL

Cytochrome P450 2D6 = Cytochrome P450 2D6 (Homo sapiens, UniProt P10635); conditions: bti-tn-5b1-4; note: in other assays of this panel Not Active means under 50% inhibition at 10 µM
Sequence of Cytochrome P450 2D6 (P10635 whole entry): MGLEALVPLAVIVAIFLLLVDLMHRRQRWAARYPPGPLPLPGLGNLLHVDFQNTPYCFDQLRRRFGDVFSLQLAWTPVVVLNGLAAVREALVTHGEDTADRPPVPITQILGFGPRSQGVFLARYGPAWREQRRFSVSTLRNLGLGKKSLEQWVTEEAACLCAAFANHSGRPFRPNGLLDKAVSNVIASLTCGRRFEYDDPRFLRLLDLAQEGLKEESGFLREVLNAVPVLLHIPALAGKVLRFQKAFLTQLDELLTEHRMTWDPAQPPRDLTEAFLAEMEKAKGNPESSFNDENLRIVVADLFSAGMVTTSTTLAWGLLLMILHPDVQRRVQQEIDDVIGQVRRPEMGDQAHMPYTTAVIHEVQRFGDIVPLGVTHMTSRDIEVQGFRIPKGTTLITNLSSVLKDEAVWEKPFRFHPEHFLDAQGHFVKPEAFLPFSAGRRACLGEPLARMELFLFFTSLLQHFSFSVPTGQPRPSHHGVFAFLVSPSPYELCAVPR

[2] = DRUGMATRIX: Glutamate, NMDA, Phencyclidine radioligand binding (ligand: [3H] TCP); type: cell membranes, Rattus norvegicus, Wistar, Cerebral cortex, Membrane; conditions: Not Active = under 50% inhibition at 10 µM
[3] = biological target: T3, Receptor-type tyrosine-protein phosphatase C (Homo sapiens, UniProt P08575); set-up: species or system Escherichia coli
T3 sequence (P08575 whole entry): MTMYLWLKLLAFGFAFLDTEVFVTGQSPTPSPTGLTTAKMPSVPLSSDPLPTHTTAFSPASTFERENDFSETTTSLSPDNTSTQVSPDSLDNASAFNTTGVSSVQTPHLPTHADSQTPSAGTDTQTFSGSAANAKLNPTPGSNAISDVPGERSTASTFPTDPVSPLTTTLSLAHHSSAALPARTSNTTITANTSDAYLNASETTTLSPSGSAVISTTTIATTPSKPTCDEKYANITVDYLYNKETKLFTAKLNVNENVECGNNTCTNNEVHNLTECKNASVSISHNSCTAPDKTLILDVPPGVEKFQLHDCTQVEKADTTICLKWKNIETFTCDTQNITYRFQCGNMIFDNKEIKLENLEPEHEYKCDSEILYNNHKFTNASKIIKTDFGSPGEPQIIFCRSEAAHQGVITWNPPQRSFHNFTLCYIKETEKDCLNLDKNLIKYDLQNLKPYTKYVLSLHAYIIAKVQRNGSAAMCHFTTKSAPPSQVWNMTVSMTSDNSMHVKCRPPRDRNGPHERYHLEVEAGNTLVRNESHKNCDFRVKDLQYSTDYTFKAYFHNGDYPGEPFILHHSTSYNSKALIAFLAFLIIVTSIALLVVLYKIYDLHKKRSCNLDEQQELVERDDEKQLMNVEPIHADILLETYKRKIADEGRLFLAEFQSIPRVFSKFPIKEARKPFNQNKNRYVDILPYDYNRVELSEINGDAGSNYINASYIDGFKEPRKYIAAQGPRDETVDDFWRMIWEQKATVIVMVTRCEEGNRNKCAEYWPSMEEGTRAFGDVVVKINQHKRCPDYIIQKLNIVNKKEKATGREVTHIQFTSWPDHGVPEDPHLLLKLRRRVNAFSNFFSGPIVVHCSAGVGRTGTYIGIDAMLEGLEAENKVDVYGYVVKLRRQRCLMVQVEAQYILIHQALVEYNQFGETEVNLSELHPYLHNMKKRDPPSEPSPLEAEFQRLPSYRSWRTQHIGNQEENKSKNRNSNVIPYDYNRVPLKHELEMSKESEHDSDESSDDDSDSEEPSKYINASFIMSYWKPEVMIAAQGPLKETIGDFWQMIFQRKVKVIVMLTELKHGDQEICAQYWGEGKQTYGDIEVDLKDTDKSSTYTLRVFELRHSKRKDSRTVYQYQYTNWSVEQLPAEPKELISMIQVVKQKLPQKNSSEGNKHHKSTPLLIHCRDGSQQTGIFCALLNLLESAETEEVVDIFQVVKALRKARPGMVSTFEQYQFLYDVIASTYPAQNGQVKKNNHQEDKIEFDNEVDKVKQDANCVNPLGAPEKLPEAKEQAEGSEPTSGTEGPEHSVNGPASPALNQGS

D(3) dopamine receptor = D(3) dopamine receptor (Homo sapiens, UniProt P35462); assay: DRUGMATRIX: Dopamine D3 radioligand binding (ligand: [3H] Spiperone); type: cell membranes, CHO, Membrane; conditions: cho
Sequence of D(3) dopamine receptor (P35462 whole entry): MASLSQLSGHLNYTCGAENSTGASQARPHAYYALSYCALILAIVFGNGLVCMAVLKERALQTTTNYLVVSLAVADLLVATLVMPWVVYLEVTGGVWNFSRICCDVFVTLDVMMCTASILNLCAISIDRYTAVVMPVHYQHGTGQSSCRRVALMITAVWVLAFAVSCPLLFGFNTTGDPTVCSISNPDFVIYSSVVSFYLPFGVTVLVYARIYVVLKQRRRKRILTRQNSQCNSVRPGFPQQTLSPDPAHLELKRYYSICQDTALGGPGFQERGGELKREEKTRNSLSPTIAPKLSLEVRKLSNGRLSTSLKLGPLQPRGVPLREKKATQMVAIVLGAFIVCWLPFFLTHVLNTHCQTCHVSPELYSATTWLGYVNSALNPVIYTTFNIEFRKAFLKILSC

Calcitonin receptor = biological target: T4, Calcitonin receptor (Homo sapiens, UniProt P30988); type: cell membranes, Membrane; conditions: t47d; note: in other assays of this panel Not Active means under 50% inhibition at 10 µM
T4 sequence (P30988 whole entry): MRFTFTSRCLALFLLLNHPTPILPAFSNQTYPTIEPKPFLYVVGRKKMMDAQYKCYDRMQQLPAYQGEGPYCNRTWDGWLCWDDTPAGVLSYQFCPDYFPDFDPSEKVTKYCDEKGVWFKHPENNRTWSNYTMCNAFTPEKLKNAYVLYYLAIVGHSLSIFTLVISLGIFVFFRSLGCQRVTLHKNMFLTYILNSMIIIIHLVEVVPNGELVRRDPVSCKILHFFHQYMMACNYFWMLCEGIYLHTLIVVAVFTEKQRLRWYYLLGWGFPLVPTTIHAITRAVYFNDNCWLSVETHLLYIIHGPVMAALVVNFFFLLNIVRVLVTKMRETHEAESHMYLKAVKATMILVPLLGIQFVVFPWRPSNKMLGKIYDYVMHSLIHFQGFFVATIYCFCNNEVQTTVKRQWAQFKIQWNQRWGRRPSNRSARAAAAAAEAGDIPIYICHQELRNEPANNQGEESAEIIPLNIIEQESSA

Sequence of Nitric oxide synthase 1 (P29476 whole entry): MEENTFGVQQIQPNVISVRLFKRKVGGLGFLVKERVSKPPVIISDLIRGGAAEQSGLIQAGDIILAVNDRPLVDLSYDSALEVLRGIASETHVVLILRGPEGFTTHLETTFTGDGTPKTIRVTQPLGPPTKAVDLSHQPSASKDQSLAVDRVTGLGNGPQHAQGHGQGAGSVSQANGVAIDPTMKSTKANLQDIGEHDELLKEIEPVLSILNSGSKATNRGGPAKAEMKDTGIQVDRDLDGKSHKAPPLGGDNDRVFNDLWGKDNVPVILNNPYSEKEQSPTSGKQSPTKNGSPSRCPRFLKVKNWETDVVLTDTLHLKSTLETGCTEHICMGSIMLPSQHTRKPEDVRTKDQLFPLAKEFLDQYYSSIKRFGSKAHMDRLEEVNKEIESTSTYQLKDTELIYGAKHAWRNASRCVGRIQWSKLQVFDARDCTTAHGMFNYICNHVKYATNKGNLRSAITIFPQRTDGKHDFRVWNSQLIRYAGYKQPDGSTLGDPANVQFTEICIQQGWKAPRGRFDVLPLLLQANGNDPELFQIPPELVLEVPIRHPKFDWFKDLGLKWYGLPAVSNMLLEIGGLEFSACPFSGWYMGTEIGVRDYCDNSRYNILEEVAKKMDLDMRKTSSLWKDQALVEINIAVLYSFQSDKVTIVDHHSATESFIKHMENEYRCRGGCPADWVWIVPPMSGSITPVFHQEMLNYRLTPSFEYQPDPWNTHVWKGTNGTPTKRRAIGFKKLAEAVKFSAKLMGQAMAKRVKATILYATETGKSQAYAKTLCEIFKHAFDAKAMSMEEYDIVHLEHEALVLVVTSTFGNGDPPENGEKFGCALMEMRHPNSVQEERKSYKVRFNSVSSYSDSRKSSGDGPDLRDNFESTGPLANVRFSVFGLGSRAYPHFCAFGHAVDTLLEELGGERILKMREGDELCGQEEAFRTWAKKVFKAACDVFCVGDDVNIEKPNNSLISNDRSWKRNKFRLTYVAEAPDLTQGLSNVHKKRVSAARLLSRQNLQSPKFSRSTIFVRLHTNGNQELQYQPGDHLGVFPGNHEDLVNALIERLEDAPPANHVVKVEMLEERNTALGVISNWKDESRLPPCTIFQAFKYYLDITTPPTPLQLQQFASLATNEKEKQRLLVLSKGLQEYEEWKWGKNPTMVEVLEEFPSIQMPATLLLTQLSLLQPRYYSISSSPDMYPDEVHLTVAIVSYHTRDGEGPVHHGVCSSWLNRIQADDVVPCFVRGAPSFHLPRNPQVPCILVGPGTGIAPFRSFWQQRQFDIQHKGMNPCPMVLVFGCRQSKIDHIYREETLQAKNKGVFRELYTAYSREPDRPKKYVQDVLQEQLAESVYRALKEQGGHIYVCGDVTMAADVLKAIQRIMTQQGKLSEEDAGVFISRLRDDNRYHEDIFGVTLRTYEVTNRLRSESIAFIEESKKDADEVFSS

O=C1C(CC[S+]([O-])c2ccccc2)C(=O)N(c2ccccc2)N1c1ccccc1 (stereo not given) [SULFINPYRAZONE]
Not Active: IC50 (Nitric oxide synthase 1) | IC50 [1] | IC50 (Cathepsin G) | IC50 (Cytochrome P450 2D6) | Ki (Cytochrome P450 2D6) | IC50 [2] | Ki [2] | IC50 [3] | IC50 (D(3) dopamine receptor) | IC50 (Calcitonin receptor)

CO[C@H]1/C=C/O[C@@]2(C)Oc3c(C)c(O)c4c(O)c(c(/C=N/N5CCN(C6CCCC6)CC5)c(O)c4c3C2=O)NC(=O)/C(C)=C\C=C\[C@H](C)[C@H](O)[C@@H](C)[C@@H](O)[C@@H](C)[C@H](OC(C)=O)[C@@H]1C [RIFAPENTINE]
Not Active: IC50 (Nitric oxide synthase 1) | IC50 [1] | IC50 (Cathepsin G) | IC50 (Cytochrome P450 2D6) | Ki (Cytochrome P450 2D6) | IC50 [2] | Ki [2] | IC50 [3] | IC50 (D(3) dopamine receptor) | IC50 (Calcitonin receptor)

Cn1c(=O)c2nc[nH]c2n(C)c1=O.O [THEOPHYLLINE]
Not Active: IC50 (Nitric oxide synthase 1) | IC50 [1] | IC50 (Cathepsin G) | IC50 (Cytochrome P450 2D6) | Ki (Cytochrome P450 2D6) | IC50 [2] | Ki [2] | IC50 [3] | IC50 (D(3) dopamine receptor) | IC50 (Calcitonin receptor)

CCCCOc1cc(CC2CNC(=O)N2)ccc1OC (stereo not given) [RO-201724]
Not Active: IC50 (Nitric oxide synthase 1) | IC50 [1] | IC50 (Cathepsin G) | IC50 (Cytochrome P450 2D6) | Ki (Cytochrome P450 2D6) | IC50 [2] | Ki [2] | IC50 [3] | IC50 (D(3) dopamine receptor) | IC50 (Calcitonin receptor)

N#Cc1ccc(C(c2ccc(C#N)cc2)n2cncn2)cc1 [LETROZOLE]
Not Active: IC50 (Nitric oxide synthase 1) | IC50 [1] | IC50 (Cathepsin G) | IC50 (Cytochrome P450 2D6) | Ki (Cytochrome P450 2D6) | IC50 [2] | Ki [2] | IC50 [3] | IC50 (D(3) dopamine receptor) | IC50 (Calcitonin receptor)

O=C1Nc2ccc(Cl)cc2C(c2ccccc2Cl)=NC1O (stereo not given) [LORAZEPAM]
Not Active: IC50 (Nitric oxide synthase 1) | IC50 [1] | IC50 (Cathepsin G) | IC50 (Cytochrome P450 2D6) | Ki (Cytochrome P450 2D6) | IC50 [2] | Ki [2] | IC50 [3] | IC50 (D(3) dopamine receptor) | IC50 (Calcitonin receptor)
